# Results published in PMC5349880, “P-glycoprotein-mediated chemoresistance is reversed by carbonic anhydrase XII inhibitors” (Oncotarget, 2016).
# Legend:
# MDA-MB-231 cells = assay: Cell viability (neutral red); format: cell-based, human
# TUBO cells = assay: Cell viability (neutral red); format: cell-based, murine
# [1] = Hematochemical parameters of tumor-bearing animals
# SaOS/DX cells = assay: Cell viability (neutral red); format: cell-based, human
# T74D cells = assay: Cell viability (neutral red); format: cell-based, human
# [2] = Liver microsome metabolic stability (mouse); format: in vitro ADME; conditions: mouse liver microsomes; read-out: mouse liver microsome stability t1/2
# Method: (§1) Plasma stability (mouse) and liver microsome metabolic stability (mouse) were measured by the Biopharmacy Laboratory, Shanghai Institute of Materia Medica, Chinese Academy of Sciences.
# JC cells [3] = assay: Cell viability (neutral red); format: cell-based, murine
# JC cells [4] = assay: In vivo tumor growth, JC breast tumor model; conditions: for reduction in tumor volume at day 18: co-administered with 5 mg/kg doxorubicin i.v.
# Method: Data are presented as means ± SD.
# Tumor growth was measured daily by caliper and calculated according to the equation (L × W^2)/2, where L = tumor length, W = tumor width.
# A549 cells = assay: Cell viability (neutral red); format: cell-based, human
# U2OS/DX cells = assay: Cell viability (neutral red); format: cell-based, human
# Pgp = Pgp ATPase activity on Pgp-rich vesicles; format: cell-based; conditions: cells grown 24 h with 5 nM compound
# Method: Pancadherin level was used as control of equal protein loading. no Ab: A549/DX sample immunoprecipitated without antibody. […] Data are presented as means ± SD (n = 3).
# The assay was performed on Pgp-enriched membrane vesicles as detailed in [39]. Verapamil (10 μM) was added to the reaction mix to achieve a maximal activation of the Pgp ATPase activity. Results were expressed as nmol hydrolyzed phosphate (Pi)/min/mg proteins, according to the titration curve previously prepared.
# HT29/DX cells = assay: Cell viability (neutral red); format: cell-based, human
# [5] = system: ca12 KO HT29/DX, A549/DX, MDA-MB-231 and U2OS/DX cells; assay: Intracellular doxorubicin accumulation in ca12 knocked-out cells; format: cell-based, human
# Method: Data are presented as means ± SD (n = 4). […] The absorbance of viable cells was measured spectrophotometrically. Data are presented as means ± SD (n = 4).
# Doxorubicin content was measured fluorimetrically as detailed previously by us. […] Cells were washed twice with PBS, detached with trypsin and sonicated. The intracellular drug content was measured by liquid scintillation. The results were expressed as nmol drug/mg cell proteins, according to titration curves previously set.
# 5 × 10^5 cells were transduced with 1 μg RNA vector (CRISPR pCas guide vector) ca12 or 1 μg not-targeting vector, mixed with 1 μg donor DNA vector (Origene, Rockville, MD), following the manufacturer's instructions. Stable KO cells were selected in complete medium containing 1 μg/ml puromycin for three weeks. Knockout efficacy was evaluated by immunoblotting, as reported above.
# A549/DX cells = assay: Cell viability (neutral red); format: cell-based, human
# [6] = system: CCD-Co-18 cells, BEAS-2B cells, MCF10A cells, fibroblasts; assay: Cell viability (neutral red) of not-transformed cells; format: cell-based, human; conditions: 5 nM, 72 h; no detectable CAXII
# Description: Supplementary Figure S4: Effects of compounds 1, 2 and 4 on not-transformed cells. (A) Not-transformed human epithelial colon CCD-Co-18 cells, epithelial lung BEAS-2B cells, epithelial breast MCF10A cells, fibroblasts (fibro) were lysed and immunoblotted for CAXII and CAIX. A549/DX cells were used as control of CAXII- and CAIX-positive cells. β-tubulin level was used as control of equal protein loading. The figure is representative of one out of three experiments with similar results. (B) Cells were grown for 72 h in fresh medium (–), or in medium containing 5 nM compounds 1, 2 and 4, then stained with neutral red dye. The absorbance of viable cells was measured spectrophotometrically. Data are presented as means ± SD (n = 4).
# Plasma stability (mouse) = format: in vitro ADME; conditions: read-out: mouse plasma stability t1/2 (converted)
# Method: as §1
# HT29 cells = assay: Cell viability (neutral red); format: cell-based, human; conditions: doxorubicin alone 72 h, IC50 ratio vs doxorubicin + tariquidar 25 nM
# SaOS cells = assay: Cell viability (neutral red); format: cell-based, human; conditions: doxorubicin alone 72 h, IC50 ratio vs doxorubicin + tariquidar 25 nM
# SKBR3 cells = assay: Cell viability (neutral red); format: cell-based, human; conditions: doxorubicin alone 72 h, IC50 ratio vs doxorubicin + tariquidar 25 nM
# MCF7 cells = assay: Cell viability (neutral red); format: cell-based, human; conditions: doxorubicin alone 72 h, IC50 ratio vs doxorubicin + tariquidar 25 nM
# U2OS cells = assay: Cell viability (neutral red); format: cell-based, human; conditions: doxorubicin alone 72 h, IC50 ratio vs doxorubicin + tariquidar 25 nM
# [7] = C1 19 ng/kg intratumorally alone
# [8] = C1 1900 ng/kg intratumorally alone
# [9] = dox 5 mg/kg i.v. + C1 19 ng/kg intratumorally
# [10] = dox 5 mg/kg i.v. + C1 1900 ng/kg intratumorally
smiles,measurement,setting,value
NS(=O)(=O)OCCCNS(=O)(=O)[C@@H]1O[C@H](CO)[C@@H](O)[C@H](O)[C@H]1O [Compound 1],reduction in viability for individual compounds,"MDA-MB-231 cells; MDA-MB-231 cells, compound alone, 5 nM",≤ 36 ± 11%
same,reduction in viability for individual compounds,"TUBO cells; TUBO cells, compound alone, 5 nM",≤ 28 ± 7%
same,ALT,[1]; [7],38 ± 12 U/l
same,AP,[1]; [7],91 ± 13 U/l
same,AST,[1]; [7],239 ± 72 U/l
same,CPK,[1]; [7],271 ± 84 U/l
same,Creatinine,[1]; [7],0.021 ± 0.011 mg/L
same,LDH,[1]; [7],6723 ± 1023 U/l
same,ALT,[1]; [8],45 ± 7 U/l
same,AP,[1]; [8],83 ± 11 U/l
same,AST,[1]; [8],261 ± 71 U/l
same,CPK,[1]; [8],312 ± 81 U/l
same,Creatinine,[1]; [8],0.033 ± 0.008 mg/L
same,LDH,[1]; [8],6729 ± 835 U/l
same,ALT,[1]; [9],44 ±11 U/l
same,AP,[1]; [9],79 ± 11 U/l
same,AST,[1]; [9],221 ± 71 U/l
same,CPK,[1]; [9],701 ± 129 U/l
same,Creatinine,[1]; [9],0.029 ± 0.011 mg/L
same,LDH,[1]; [9],6091 ± 836 U/l
same,ALT,[1]; [10],33 ± 15 U/l
same,AP,[1]; [10],83 ± 19 U/l
same,AST,[1]; [10],182 ± 44 U/l
same,CPK,[1]; [10],691 ± 103 U/l
same,Creatinine,[1]; [10],0.028 ± 0.008 mg/L
same,LDH,[1]; [10],6241 ± 936 U/l
same,reduction in viability for individual compounds,"SaOS/DX cells; SaOS/DX cells, compound alone, 5 nM",≤ 32 ± 7%
same,reduction in viability for individual compounds,"T74D cells; T74D cells, compound alone, 5 nM",≤ 33 ± 12%
same,half-life,[2],2.25 h
same,reduction in viability for individual compounds,"JC cells [3]; JC cells, compound alone, 5 nM",≤ 30 ± 10%
same,reduction in tumor volume at day 18,JC cells [4]; 19 ng/kg intratumorally,21%
same,reduction in tumor volume at day 18,JC cells [4]; 1900 ng/kg intratumorally,47%
same,effect on tumor growth when used alone,"JC cells [4]; 19 and 1900 ng/kg intratumorally, alone",no effect on tumor growth
same,reduction in viability for individual compounds,"A549 cells; A549 cells, compound alone, 5 nM",≤ 28 ± 10%
same,reduction in viability for individual compounds,"U2OS/DX cells; U2OS/DX cells, compound alone, 5 nM",≤ 27 ± 8%
same,reduction of Pgp ATPase activity,Pgp,≥ 1.47 fold
same,reduction in viability for individual compounds,"HT29/DX cells; HT29/DX cells, compound alone, 5 nM",≤ 31 ± 6%
same,effect on doxorubicin intracellular accumulation,[5],lost the ability to further increase the doxorubicin intracellular accumulation
same,reduction in viability for individual compounds,"A549/DX cells; A549/DX cells, compound alone, 5 nM",≤ 38 ± 7%
same,cytotoxic effect in not-transformed cells,[6],did not exert any cytotoxic effect
same,half-life,Plasma stability (mouse),0.7 h
"COc1cccc2c1C(=O)c1c(O)c3c(c(O)c1C2=O)C[C@@](O)(C(=O)CO)C[C@@H]3O[C@H]1C[C@H](N)[C@H](O)[C@H](C)O1 [dox, doxorubicin, reference compound]",Rf dox,"MDA-MB-231 cells; MDA-MB-231, doxorubicin alone 72 h, IC50 ratio vs doxorubicin + tariquidar 25 nM",4.55
same,Rf dox,"TUBO cells; TUBO, doxorubicin alone 72 h, IC50 ratio vs doxorubicin + tariquidar 25 nM",4.23
same,ALT,[1]; doxorubicin 5 mg/kg i.v. alone,37 ± 16 U/l
same,AST,[1]; doxorubicin 5 mg/kg i.v. alone,288 ± 72 U/l
same,CPK,[1]; doxorubicin 5 mg/kg i.v. alone,673 ± 172 U/l
same,Creatinine,[1]; doxorubicin 5 mg/kg i.v. alone,0.029 ± 0.017 mg/L
same,LDH,[1]; doxorubicin 5 mg/kg i.v. alone,6272 ± 812 U/l
same,Rf dox,HT29 cells,1.39
same,Rf dox,"SaOS/DX cells; SaOS/DX, doxorubicin alone 72 h, IC50 ratio vs doxorubicin + tariquidar 25 nM",14.97
same,Rf dox,SaOS cells,1.43
same,Rf dox,"T74D cells; T74D, doxorubicin alone 72 h, IC50 ratio vs doxorubicin + tariquidar 25 nM",0.98
same,Rf dox,"JC cells [3]; JC, doxorubicin alone 72 h, IC50 ratio vs doxorubicin + tariquidar 25 nM",7.61
same,Rf dox,"A549 cells; A549, doxorubicin alone 72 h, IC50 ratio vs doxorubicin + tariquidar 25 nM",1.31
same,Rf dox,"U2OS/DX cells; U2OS/DX, doxorubicin alone 72 h, IC50 ratio vs doxorubicin + tariquidar 25 nM",15.44
same,Rf dox,SKBR3 cells,2.19
same,Rf dox,"HT29/DX cells; HT29/DX, doxorubicin alone 72 h, IC50 ratio vs doxorubicin + tariquidar 25 nM",4.26
same,Rf dox,MCF7 cells,1.32
same,Rf dox,"A549/DX cells; A549/DX, doxorubicin alone 72 h, IC50 ratio vs doxorubicin + tariquidar 25 nM",4.45
same,Rf dox,U2OS cells,1.05
